This is an account of results in patent publication US20120058935A1, “ANTIMICROBIAL COMPOSITIONS AND METHODS OF USE THEREFORE” (priority 2009, published 2012).

One series concerns 12 microorganisms. The series is described as follows: Antimicrobial activity against the panel of 12 microorganisms (summary). The format is cell-based. The conditions noted are these: summary in words of the MIC experiments. The procedure:
Peptide antimicrobial activity was determined as minimal inhibitory concentration (MIC). Experiments identified peptide MIC by broth microdilution susceptibility test in conjunction with CFU and alamar blue assays. Inoculum containing mid-logarithmic phase cells was dispensed into the wells of polypropylene 96-well plates (Fisher, Pittsburgh, Pa.) containing seven two-fold dilutions of test peptide in growth media. Plates were then incubated aerobically overnight (12 to 18 hrs) at 37° C. Peptide MIC was taken as the lowest concentration able reduce cell growth by CFU and alamar blue assays by at least two-fold and which correlated with the visible loss of a growth button on the bottom of microtiter wells. Experiments were repeated a minimum of three times for each organism, and tests included at least three replicates for each assay condition. Experiments included control serial dilutions of buffer vehicle alone.

The next series relates to Pseudomonas aeruginosa. The format is cell-based. The procedure:
(§1) Bacteria were cultured aerobically in Mueller-Hinton broth (MHB), Brain and Heart Infusion broth (BHIB), or BHIB supplemented with 1% lysed horse blood and plated on Tryptone Soy Agar (TSA) plates containing 5% defibrinated sheep blood. […] Organisms were subcultured for 2 hrs to generate mid-logarithmic growth cultures for use as inoculates in experiments.
(§2) Bacteria inoculum cell densities were normalized to 5×10^5 cells/ml immediately before use photometrically and subsequently confirmed by colony count. Inoculum of C. albicans contained a cell density of 2.5×10^3 CFU/ml.
(§3) Bulk powdered peptides were first dissolved in 30% trifluoroethanol (TFE) at 1 mg/ml. […] Stock solutions at 2 mg/ml were prepared the day of experimentation from the peptide films by solubilizing a second time in either water or 20% TFE. Aβ stocks prepared in water were sonicated and insoluble peptide aggregates pelleted by centrifugation (10 min×16,000 g). Peptide concentrations in stock solutions were determined immediately before use by bicinchoninic acid (BCA) protein assay. […] For MIC experiments, peptides were serially diluted into growth media. For other experiments stocks were diluted into required working buffers. Experiments included controls for peptide buffer vehicle alone.
(§4) Experiments identified peptide MIC by broth microdilution susceptibility test in conjunction with CFU and alamar blue assays. […] Peptide MIC was taken as the lowest concentration able reduce cell growth by CFU and alamar blue assays by at least two-fold and which correlated with the visible loss of a growth button on the bottom of microtiter wells. Experiments were repeated a minimum of three times for each organism, and tests included at least three replicates for each assay condition. Experiments included control serial dilutions of buffer vehicle alone.

Series [1] relates to Staphylococcus epidermidis. The format is cell-based. The procedure: as §1, §2, §3, §4
For a further series, the system named is Enterococcus faecalis. The format is cell-based. The procedure: as §1, §2, §3, §4
The next series relates to Listeria monocytogenes. The format is cell-based. On the procedure: as §1, §2, §3, §4
The subject of a further series is Candida albicans. In kind it is cell-based. On the procedure: as §1, §2, §3, §4
The subject of a further series is Streptococcus pyogenes. The format is cell-based. On the procedure:
as §1, §2, §3, §4

For series [2] the following is noted: clinical trial, AD patients, ref. [34]; cited from earlier work.
A further series deals with E. faecalis. The series is described as follows: E. faecalis growth curves with peptide (CFU with time). The format is cell-based, Enterococcus faecalis. The conditions noted are these: 25 μg/ml peptide; CFU counted with time (FIG. 1).
The test system of the next series is Streptococcus pneumoniae. The format is cell-based. To be noted: ATCC 49619; BHIB/LHB; 12 hrs incubation at 37° C. The procedure:
as §1, §2, §3, §4

The subject of another series is Streptococcus salivarius. In kind it is cell-based. To be noted: ATCC 13419; BHIB/LHB; 12 hrs incubation at 37° C. On the procedure: as §1, §2, §3, §4
The subject of the next series is Streptococcus mitis. The format is cell-based. To be noted: ATCC 6249; BHIB/LHB; 12 hrs incubation at 37° C. The procedure: as §1, §2, §3, §4
A further series relates to Escherichia coli. In kind it is cell-based. The conditions noted are these: ATCC 25922; BHIB; 12 hrs incubation at 37° C. The procedure: as §1, §2, §3, §4
In a further series the test system is Staphylococcus aureus. In kind it is cell-based. To be noted: ATCC 25923; MHB; 12 hrs incubation at 37° C. On the procedure:
as §1, §2, §3, §4

Another series relates to Streptococcus agalactiae. In kind it is cell-based. The conditions noted are these: ATCC 12386; BHIB/LHB; 12 hrs incubation at 37° C. The procedure: as §1, §2, §3, §4

Values after ≈ are worked out from the molar mass of the structure shown. Where two headings read alike, the source gives them in different places. Ends that are not written are not given here.

Experimental for E. faecalis: Bacterial growth with time was monitored by inoculation of agar with diluted incubants and counting CFU. Representative data from six experiments is shown as mean signal of four replicates±s.e.m.
CFU assay; Serial dilutions of incubants were prepared and streaked onto the surface of agar. The agar plates were then incubated overnight at 37° C. and colonies forming units counted.

As for “AIVVGGVMLGIIAGKNSGVDEAFFVLKQHHVEYGSDHRFEAD [reAβ42]”, the “Inhibition of microbial growth, panel of 12 microorganisms” value (from here on “Inhibition of microbial growth”) in the series on 12 microorganisms was “not inhibited”. Besides, the “MIC against Pseudomonas aeruginosa” value against Pseudomonas aeruginosa (18 h) was more than 50 µg/mL. In addition, in series [1] (18 h), the “MIC against Staphylococcus epidermidis” value is more than 50 µg/mL. For the same compound, the “MIC against Enterococcus faecalis” value with Enterococcus faecalis (18 h) is 50 µg/mL. Besides, the “MIC against Listeria monocytogenes” value against Listeria monocytogenes (18 h) was more than 50 µg/mL. In addition, the “MIC against Candida albicans” value against Candida albicans (18 h) is more than 25 µg/mL. In the series on Streptococcus pyogenes (18 h), the “MIC against Streptococcus pyogenes” value was more than 50 µg/mL.

For the compound “DAEFGHDSGFEVRHQKLVFFAEDVGSNKGAIIGLMVGGVVIA [roAβ42]”, in the series on 12 microorganisms, the “Inhibition of microbial growth” value is recorded as “demonstrated antimicrobial activity”. Besides, the “MIC against Pseudomonas aeruginosa” value against Pseudomonas aeruginosa (18 h) is more than 50 µg/mL. For the same compound, the “MIC against Staphylococcus epidermidis” value in [1] (18 h) came out at 3.13 µg/mL. The “MIC against Enterococcus faecalis” value against Enterococcus faecalis (18 h) worked out at 3.13 µg/mL. Besides, in the series with Listeria monocytogenes (18 h), the “MIC against Listeria monocytogenes” value came to 6.25 µg/mL. The “MIC against Candida albicans” value against Candida albicans (18 h) is 0.78 µg/mL. In addition, in the series on Streptococcus pyogenes (18 h), the “MIC against Streptococcus pyogenes” value was more than 50 µg/mL.

With `C[C@@H](C(=O)O)c1ccc(-c2ccccc2)c(F)c1` [tarenflurbil], the “Rates of infection in patients receiving the drug” value in [2] is given as “significantly increased rates of infection”.

As to “recAβ42: Recombinant human Aβ42 purchased from rPeptide”, the “Inhibition of microbial growth” value in the series with 12 microorganisms is given as “Equivalent findings”.

Take `CC[C@H](C)[C@H](NC(=O)[C@H](CCCCN)NC(=O)[C@H](CCC(=O)O)NC(=O)[C@H](CCCCN)NC(=O)[C@H](CO)NC(=O)[C@H](CCCCN)NC(=O)[C@H](CCCNC(=N)N)NC(=O)[C@H](Cc1ccccc1)NC(=O)[C@H](Cc1ccccc1)NC(=O)[C@H](CC(=O)O)NC(=O)CNC(=O)[C@H](CC(C)C)NC(=O)[C@@H](N)CC(C)C)C(=O)NCC(=O)N[C@@H](CCCCN)C(=O)N[C@@H](CCC(=O)O)C(=O)N[C@@H](Cc1ccccc1)C(=O)N[C@@H](CCCCN)C(=O)N[C@@H](CCCNC(=N)N)C(=O)N[C@H](C(=O)N[C@H](C(=O)N[C@@H](CCC(N)=O)C(=O)N[C@@H](CCCNC(=N)N)C(=O)N[C@H](C(=O)N[C@@H](CCCCN)C(=O)N[C@@H](CC(=O)O)C(=O)N[C@@H](Cc1ccccc1)C(=O)N[C@@H](CC(C)C)C(=O)N[C@@H](CCCNC(=N)N)C(=O)N[C@@H](CC(N)=O)C(=O)N[C@@H](CC(C)C)C(=O)N[C@H](C(=O)N1CCC[C@H]1C(=O)N[C@@H](CCCNC(=N)N)C(=O)N[C@H](C(=O)N[C@@H](CCC(=O)O)C(=O)N[C@@H](CO)C(=O)O)[C@@H](C)O)C(C)C)[C@@H](C)CC)C(C)C)[C@@H](C)CC` [LL-37]: in the series with E. faecalis, the “Mode of action on E. faecalis growth (bacteriostatic or bactericidal)” value was “potent bactericidal activity”. For the same compound, the “MIC against Streptococcus pneumoniae” value in the series on Streptococcus pneumoniae was 1.56 µg/mL (≈ 0.347 µM). Moreover, the “MIC against Streptococcus salivarius” value in the series with Streptococcus salivarius was 50 µg/mL (≈ 11.1 µM). For the same compound, the “MIC against Pseudomonas aeruginosa” value with Pseudomonas aeruginosa (ATCC 27853, BHIB, 18 hrs incubation at 37° C.) amounted to 6.25 µg/mL (≈ 1.39 µM). The “MIC against Streptococcus mitis” value in the series on Streptococcus mitis was 6.25 µg/mL (≈ 1.39 µM). The “MIC against Staphylococcus epidermidis” value in series [1] (ATCC 12228, BHIB, 18 hrs incubation at 37° C.) came to 25 µg/mL (≈ 5.56 µM). Also, in the series with Enterococcus faecalis (ATCC 29212, BHIB, 18 hrs incubation at 37° C.), the “MIC against Enterococcus faecalis” value is 6.25 µg/mL (≈ 1.39 µM). In addition, in the series with Listeria monocytogenes (ATCC 19112, BHIB, 18 hrs incubation at 37° C.), the “MIC against Listeria monocytogenes” value worked out at 25 µg/mL (≈ 5.56 µM). For the same compound, the “MIC against Escherichia coli” value with Escherichia coli turned out to be 1.56 µg/mL (≈ 0.347 µM). In the series on Staphylococcus aureus, the “MIC against Staphylococcus aureus” value is 6.25 µg/mL (≈ 1.39 µM). In the series on Candida albicans (ATCC 10231, RPMI-1640, 18 hrs incubation at 37° C.), the “MIC against Candida albicans” value came out at 6.25 µg/mL (≈ 1.39 µM). In addition, the “MIC against Streptococcus agalactiae” value against Streptococcus agalactiae amounted to 12.5 µg/mL (≈ 2.78 µM). The “MIC against Streptococcus pyogenes” value with Streptococcus pyogenes (ATCC 19615, BHIB/LHB, 18 hrs incubation at 37° C.) was 6.25 µg/mL (≈ 1.39 µM).
